From patent US12220440B2, “Drug composition, method for treating infection, disinfecting composition, and drug adjuvant” (priority 2022, dated 2025)
Like-named read-outs stand apart in the source and are kept apart here.

Columns and labels:
Type in all cases: cell-based
[1] = test system: P. aeruginosa (colistin-susceptible); test: MIC, colistin-susceptible P. aeruginosa isolates, with and without otilonium bromide; conditions: Pseudomonas aeruginosa, Ob alone, read-out: Ob MIC
[2] = test system: A. baumannii (colistin-resistant); test: MIC, colistin-resistant A. baumannii isolates, with and without otilonium bromide; conditions: Acinetobacter baumannii
[3] = test system: E. coli (colistin-resistant); test: MIC, colistin-resistant E. coli clinical isolates, with and without otilonium bromide; conditions: Escherichia coli, Ob alone, read-out: Ob MIC
P. aeruginosa PAO1 = test: Bacterial motility on semisolid agar (migration distance)
Excerpt: It is believed that flagellar formation and flagellar motor rotation are driven by PMF. To study the effect of otilonium bromide on bacterial motility, P. aeruginosa, whose motility on a semisolid surface is dependent upon a functional flagellum, is reviewed. […] Gramicidin, an ionophore known for acting as PMF dissipater, is the positive control. […] For the experiments in FIG. 6a, P. aeruginosa is inoculated in the center of the semisolid agar containing otilonium bromide at the indicated concentrations, with gramicidin as the positive control. A set of 10 mM CaCl2 and no CaC2 plates are also prepared as indicated.
The migration distance is measured in cm and recorded after the inoculated plates ae incubated. The error bars represent the means and standard deviations (SDs). Statistical analysis is performed using unpaired two-tailed student t-test. .*, p<0.05, **, p<0.005, ***p<0.0005, ****p<0.00005.

mcr-1-bearing E. coli = test: LIVE/DEAD cell viability assay, fluorescence microscopy; conditions: 20 μg/ml of otilonium bromide alone
Procedure: Fluorescence microscopy quantifies the number of live and dead cells and determines the degree of reduction in colistin concentration in the drug combination required for effective eradication of the test organism. […] However, in the presence of 20 μg/ml of otilonium bromide, 4 μg/ml of colistin eradicates >97% of the bacteria.

E. coli Bw25113 = test: MIC, colistin-susceptible E. coli, with and without otilonium bromide; conditions: Escherichia coli, Ob alone, read-out: Ob MIC
S. Typhimurium PY01 = test: MIC, colistin-susceptible S. Typhimurium, with and without otilonium bromide; conditions: Salmonella enterica, Ob alone, read-out: Ob MIC
[4] = test system: mcr-1-bearing E. coli J53; test: SYTOX Green membrane permeability staining
Excerpt: SYTOX™ Green (available from ThermoFisher Scientific) staining analysis assesses the membrane permeability of colistin-resistant E. coli before and after treatment with the colistin and otilonium bromide combination. SYTOX Green is a green-fluorescent nucleotide dye used to test membrane permeability and membrane integrity. Green fluorescence is detected by fluorescence spectrometer when bacterial cell integrity is destroyed and membrane permeability increases.

CCCCCCCCOc1ccccc1C(=O)Nc1ccc(C(=O)OCC[N+](C)(CC)CC)cc1.[Br-] [Ob, Otilonium bromide]
MIC ([1]; P. aeruginosa PA01, colistin-susceptible): > 64 µg/mL
MIC ([1]; P. aeruginosa PAER 2011-3010, colistin-susceptible): > 64 µg/mL
MIC ([1]; P. aeruginosa PAER 2011-3252, colistin-susceptible): > 64 µg/mL
MIC ([1]; P. aeruginosa PAER 2012-1527, colistin-susceptible): > 64 µg/mL
MIC ([1]; P. aeruginosa PAERC 10.296, colistin-susceptible): > 64 µg/mL
MIC ([1]; P. aeruginosa PAERC 11.2309, colistin-susceptible): > 64 µg/mL
MIC ([1]; P. aeruginosa PAERC 11.236, colistin-susceptible): > 64 µg/mL
MIC ([1]; P. aeruginosa PAERC 11.603, colistin-susceptible): > 64 µg/mL
MIC ([1]; P. aeruginosa PAERC 12.1478, colistin-susceptible): > 64 µg/mL
MIC ([2]; ATCC17978, read-out: Ob MIC): 20 µg/mL
MIC ([2]; read-out: Ob MIC, A. baumannii ABJZ-45, colistin-resistant, Ob alone): 20 µg/mL
MIC ([2]; read-out: Ob MIC, A. baumannii ABJZ-46, colistin-resistant, Ob alone): 20 µg/mL
MIC ([2]; read-out: Ob MIC, A. baumannii ABJZ-50, colistin-resistant, Ob alone): 20 µg/mL
MIC ([3]; E. coli 5, colistin-resistant): > 64 µg/mL
MIC ([3]; E. coli 12.12.0487, colistin-resistant): > 64 µg/mL
MIC ([3]; E. coli 101, colistin-resistant): > 64 µg/mL
MIC ([3]; E. coli 119, colistin-resistant): > 64 µg/mL
MIC ([3]; E. coli 812, colistin-resistant): > 64 µg/mL
MIC ([3]; E. coli 2016.2.5 1149-1, colistin-resistant): > 64 µg/mL
MIC ([3]; E. coli 34650, colistin-resistant): > 64 µg/mL
MIC ([3]; E. coli CX48, colistin-resistant): > 64 µg/mL
MIC ([3]; E. coli CX53, colistin-resistant): > 64 µg/mL
MIC ([3]; E. coli CX116, colistin-resistant): > 64 µg/mL
MIC ([3]; E. coli WZ2431, colistin-resistant): > 64 µg/mL
MIC ([3]; E. coli WZ2909, colistin-resistant): > 64 µg/mL
MIC ([3]; E. coli WZ3903, colistin-resistant): > 64 µg/mL
MIC ([3]; E. coli WZ3906, colistin-resistant): > 64 µg/mL
MIC ([3]; E. coli WZ3920, colistin-resistant): > 64 µg/mL
MIC ([3]; E. coli WZ3951, colistin-resistant): > 64 µg/mL
MIC ([3]; E. coli WZ3955, colistin-resistant): > 64 µg/mL
MIC ([3]; E. coli X2169, colistin-resistant): > 64 µg/mL
migration distance on semisolid agar (P. aeruginosa PAO1; 40 μM otilonium bromide supplemented with 10 mM calcium ions): significant increase in migration distance
migration distance on semisolid agar (P. aeruginosa PAO1; plates containing otilonium bromide, overnight incubation): decrease in a dose-dependent manner
live/dead state of cells (mcr-1-bearing E. coli): most or all mcr-1-bearing E. coli strains were alive
MIC (E. coli Bw25113): > 64 µg/mL
MIC (S. Typhimurium PY01): > 64 µg/mL
SYTOX Green fluorescence (membrane permeability) ([4]; each drug individually): significant increase in fluorescence
ability to enhance membrane permeability, compared with colistin ([4]; otilonium bromide by itself): significantly lower than colistin
